Measured values published in patent US5124326A, “Pharmaceutically efficacious pteridine derivatives” (Roehm GmbH Chemische Fabrik, priority 1989, dated 1992).
Converted amounts (≈) assume the structure as drawn. Read-outs that look alike come from different tables or passages of the source.

Tests used:
[1] = tested on: urine volume, Na^+, K^+; experiment: diuresis test in rats (urine volume, Na+, K+ excretion; dose/response, ED50); format: in vivo, Male Wister rats; conditions: for Na^+/K^+ quotient i.v. / Na^+/K^+ quotient p.o. / ED50: rats; for ED50: Rattus norvegicus
Description: The compounds of formula I and their acid addition salts, with physiologically tolerable acids are quite suitable for peroral and intravenous medication. The diuresis tests were conducted according to the following method. Diuresis Tests/Method Male Wister rats, weighing approximately 130 g, were used in the tests. Food had been withdrawn from the rats for 18 hours. Immediately before the intravenous administration of the test substance, they were fed orally a quantity of 20 ml/kg of 0.9% NaCl solution. […] Under a slight anesthesia, administration was by the caudal vein. Generally six experimental animals were used per test. The peroral administration was by means of probang in the gastrointestinal region. The substances were administered in a mixture comprising Tylose® and physiological NaCl solution, which serves simultaneously as the hydration agent ([…]). The animals were placed individually into diuresis cages and urine was collected after 2.5 or 3 or 6 hours. The electrolytes (Na^+ K^+, Mg^+2) were determined by means of flame photometry and by means of atomic absorption measurement with the FL6 automatic electrolyte equipment from Zeiss/Oberkochen. Curves for dose/response correlations were obtained with the aid of non-linear regression analysis with the NONLIN computer program by C. Daniel and F. S. Wood in "Fitting Equations to Data", J. Wiley & Sons, New York, 1980. Thus, the characteristic value ED50 (=potency) applied to determine the diuretic efficacy is defined as the quantity of active substance per kg of body weight, which is necessary for the semi-maximum effect.

[2] = distribution coefficient log P; format: physicochemical; conditions: for logD: read-out: lipophilicity log P; for logP: from the preparation examples
[3] = resorption rate from renal recovery following p.o. and i.v. administration; format: in vivo, Male Wister rats; conditions: rat, urine, po; quotient of urinary recovery p.o./i.v.; rats
Description: Male Wister rats, weighing approximately 130 g, were used in the tests. Food had been withdrawn from the rats for 18 hours. Immediately before the intravenous administration of the test substance, they were fed orally a quantity of 20 ml/kg of 0.9% NaCl solution. […] Under a slight anesthesia, administration was by the caudal vein. Generally six experimental animals were used per test. The peroral administration was by means of probang in the gastrointestinal region. The substances were administered in a mixture comprising Tylose® and physiological NaCl solution, which serves simultaneously as the hydration agent ([…]). The animals were placed individually into diuresis cages and urine was collected after 2.5 or 3 or 6 hours. The electrolytes (Na^+ K^+, Mg^+2) were determined by means of flame photometry and by means of atomic absorption measurement with the FL6 automatic electrolyte equipment from Zeiss/Oberkochen. The renal recovery of the test substances serves as a means of measuring resorption following oral administration. The resorption rate is determined from the quotients of the recovery rates following peroral (p.o.) and intravenous (i.v.) administration, as given in percent. The recovery rate notes the renally excreted quantity based on the medicated quantity of the active substances. The concentration of the test substances in the urine of the animals is determined in accordance with thin-layer chromatographic separation by means o spectrophotometry.

[4] = solubility in isotonic phosphate buffer pH 7.4; format: physicochemical; conditions: for solubility: aqueous buffer
[5] = metabolization; conditions: in vivo
[6] = isotonic phosphate buffer, pH = 7.4, read-out: solubility
[7] = iv, duration 2.5 h, read-out: ED50 (potency), urine K^+
[8] = iv, duration 2.5 h, read-out: ED50 (potency), urine Na^+
[9] = iv, duration 2.5 h, read-out: ED50 (potency), urine volume
[10] = iv, duration 6 h, read-out: ED50 (potency), urine K^+
[11] = iv, duration 6 h, read-out: ED50 (potency), urine Na^+
[12] = iv, duration 6 h, read-out: ED50 (potency), urine volume
[13] = isotonic phosphate buffer pH 7.4, read-out: solubility in isotonic phosphate buffer
[14] = po, duration 3 h, read-out: ED50 (potency), urine K^+
[15] = po, duration 3 h, read-out: ED50 (potency), urine Na^+
[16] = po, duration 3 h, read-out: ED50 (potency), urine volume
[17] = po, duration 6 h, read-out: ED50 (potency), urine K^+
[18] = po, duration 6 h, read-out: ED50 (potency), urine Na^+
[19] = po, duration 6 h, read-out: ED50 (potency), urine volume

Structure (SMILES) | Na^+/K^+ quotient i.v. [1] | Na^+/K^+ quotient p.o. [1] | logD ([2]; pH = 7.4) | Fa [3] [%] | solubility [4, 6] [µg/mL] | ED50 [1, 7] [µmol/kg] | ED50 [1, 8] [µmol/kg] | ED50 [1, 9] [µmol/kg] | ED50 [1, 10] [µmol/kg] | ED50 [1, 11] [µmol/kg] | ED50 [1, 12] [µmol/kg] | solubility [4, 13] [µg/mL] | further results
CC1CCCC(C)N1CCCc1ccc(-c2nc3c(N)nc(N)nc3nc2N)cc1 (stereo not drawn) [compound IL, 2,4,7-Triamino-6-[4-(3-(2,6-dimethylpiperidino)propyl)phenyl]pteridine] | 170 | 8 | 0.04 | 3 | 1500 (≈ 3690 µM) |  |  |  |  |  |  |  | 
CN(C)CCCc1ccc(-c2nc3c(N)nc(N)nc3nc2N)cc1 [compound IH, 2,4,7-Triamino-6-[40(3-dimethylaminopropyl)phenyl]pteridine] | 12 | 7 | -0.6 | 3 |  | 1.41 | 1.44 | 1.23 | 1.3 | 1.83 | 1.7 | 2000 (≈ 5910 µM) | logP [2]: -0.6
CC1CCCC(C)N1Cc1ccc(-c2nc3c(N)nc(N)nc3nc2N)cc1 (stereo not drawn) [compound IF, 2,4,7-Triamino-6-[4-(2,6-dimethylpiperidinomehyl)phenyl]pteridine] | 21 | 15 | 0.68 | 33 | 25 (≈ 66.1 µM) |  |  |  |  |  |  |  | 
CC1CC(C)CN(Cc2ccc(-c3nc4c(N)nc(N)nc4nc3N)cc2)C1 (stereo not drawn) [compound IG, 2,4,7-Triamino-6-[4-(3,5-dimethylpiperidinomethyl)phenyl]pteridine] | 39 | 7 | 1.74 | 23 | 13 (≈ 34.3 µM) |  |  |  |  |  |  |  | 
CC1CCN(Cc2ccc(-c3nc4c(N)nc(N)nc4nc3N)cc2)CC1 [compound IE, 2,4,7-Triamino-6-[4-(4-methylpiperidinomethyl)phenyl]pteridine] | 27 | 14 | 0.89 | 31 | 139 (≈ 381 µM) | 5.4 | 3.13 | 2.65 | 5.9 | 12.7 | 8.24 |  | ED50 [1, 14]: 2.16 µmol/kg; ED50 [1, 15]: 9.49 µmol/kg; ED50 [1, 16]: 11.8 µmol/kg; ED50 [1, 17]: 2.41 µmol/kg; ED50 [1, 18]: 12.7 µmol/kg; ED50 [1, 19]: 14.8 µmol/kg; potassium-saving potency in comparison to Triamterene ([1]; following peroral administration, vs Triamterene): higher potassium-saving potency; metabolization [5]: No metabolization; increased solubility in comparison to Triamterene ([4]; pH 7.4 in phosphate buffer, vs Triamterene): 6.5 fold
Nc1nc(N)c2nc(-c3ccccc3)c(N)nc2n1 [Triamterene, 2,4,7-triamino-6-phenylpteridine, reference compound] | 8 | 6 |  | ~80 | 21 (≈ 82.9 µM) | 11.2 | 2.38 | 13.9 | 9.79 | 10.6 | 10.6 |  | ED50 [1, 14]: 3.38 µmol/kg; ED50 [1, 15]: 6.17 µmol/kg; ED50 [1, 16]: 6.4 µmol/kg; ED50 [1, 17]: 8.39 µmol/kg; ED50 [1, 18]: 5.06 µmol/kg; ED50 [1, 19]: 6.57 µmol/kg; lipophilicity log P ([2]; pH = 7.4): 1.26
CC1CC(C)CN(CCCc2ccc(-c3nc4c(N)nc(N)nc4nc3N)cc2)C1 (stereo not drawn) [compound IM, 2,4,7-Triamino-6-[4-(3-(3,5-dimethylpiperidino)propyl)phenyl]pteridine] | 128 | 27 | 1.18 | 7 |  |  |  |  |  |  |  | 135 (≈ 332 µM) | logP [2]: 1.18
CC(C)N(Cc1ccccc1)Cc1ccc(-c2nc3c(N)nc(N)nc3nc2N)cc1 [compound IC, 2,4,7-Triamino-6-[4-(N-benzyl-N-isopropylaminomethyl)phenyl]pteridien] | 7 | 13 | 3.2 |  | 1.9 (≈ 4.58 µM) |  |  |  |  |  |  |  | metabolization [5]: is metabolized quantitatively
CN(C)CCc1ccc(-c2nc3c(N)nc(N)nc3nc2N)cc1 [compound IJ, 2,4,7-Triamino-6-[4-(2-dimethylaminoethyl)phenyl]pteridine] | 10 | 6 | -0.59 | 4 |  | 1.04 | 1.63 | 2.36 | 2.6 | 1.64 | 2.61 | 2200 (≈ 6780 µM) | logP [2]: -0.59
Nc1nc(N)c2nc(-c3ccc(CN4CCCCC4)cc3)c(N)nc2n1 [compound ID, 2,4,7-Triamino-6-[4-(piperidinomethyl)phenyl]pteridine] | 37 | 7 | 0.2 | 19 | 76 (≈ 217 µM) |  |  |  |  |  |  |  | 
Nc1nc(N)c2nc(-c3ccc(CN4CCC(Cc5ccccc5)CC4)cc3)c(N)nc2n1 [compound IB, 2,4,7-Triamino-6-[4-(4-benzylpiperidinomethyl)phenyl]pteridine] | 17 | 4 | 2.7 | < 1 |  |  |  |  |  |  |  | 1.1 (≈ 2.5 µM) | 
CN(C)Cc1ccc(-c2nc3c(N)nc(N)nc3nc2N)cc1 [compound IA, 2,4,7-Triamino-6-[4-(dimethylaminomethyl)phenyl]pteridine] | 9 | 18 | -0.36 | 11 | 580 (≈ 1870 µM) |  |  |  |  |  |  |  | 
